Laboratory results taken from patent publication US12441679B2, “Acrylamide-substituted indane compounds and therapeutic use thereof” (Sanofi, priority 2020, dated 2025).

Test system: YAP1-TEAD and TAZ-TEAD activity (TEAD responsive promoter element)
Assay: TEAD-Luciferase Reporter Assay (8XGTIIC-Luciferase construct stably integrated in tumor cell lines)
Type: cell-based, human
Details: 8XGTIIC-Luciferase reporter in tumor cell lines, 48 hrs compound treatment, 10 doses 1-10000 nM
Description: TEAD-Luciferase Reporter Assay
Luciferase-based gene reporter assays were used, employing the TEAD responsive promoter element that are stably integrated to different human tumor cell lines in order to monitor YAP1-TEAD and TAZ-TEAD activity and to study YAP1/TAZ-TEAD activity modulation by small molecule compounds. Luciferase-based gene reporter assays employing the GAPDH promoter element and stably integrated to different human tumor cell lines are used as counter screen control cell lines.
Tumor cell lines with stable integration of the 8XGTIIC-Luciferase construct (Dupont et al., Nature 2011) or the GAPDH-Luciferase control plasmid, are seeded in culture medium in 96-well plates at a density of 8000 cells/well. Following an overnight incubation in a 37° C., 5% CO2 growth chamber, cells are treated with compounds described above at 10 doses ranging between 1 and 10000 nM for 48 hrs. After compound incubation, cells are lysed with Bright-Glo Luciferase Assay System (Promega E2620) and luciferase activity is measured using a luminescent plate reader.
The inhibitory activity of the compounds with respect to luciferase activity is given by the concentration which inhibits 50% of activity of non-treated cells. IC50s are determined with a nonlinear regression model on XLfit software analysis (IDBS, UK).

Row | Molecule | IC50 [µM]
1 | (S)—N-(1-((4-fluorophenyl)amino)-2,3-dihydro-1H-inden-5-yl)acrylamide [Example 6] | 0.031
2 | C=CC(=O)Nc1ccc2c(c1)CCC2Nc1cccc(S(F)(F)(F)(F)F)c1 (stereo not shown) [Example 54, N-(1-((3-(pentafluoro-I6-sulfanyl)phenyl)amino)-2,3-dihydro-1H-inden-5-yl)acrylamide] | 0.388
3 | (R)—N-(1-((3-(trifluoromethyl)phenyl)amino)-2,3-dihydro-1H-inden-5-yl)acrylamide [Example 2] | 0.038

Same assay, conditions: Homo sapiens; 8XGTIIC-Luciferase reporter in tumor cell lines, 48 hrs compound treatment, 10 doses 1-10000 nM

Row | Molecule | IC50 [µM]
4 | C=CC(=O)Nc1ccc2c(c1)C(Nc1ccc(C(F)(F)F)cc1)C(F)C2 (stereo not shown) [Example 90, N-[2-fluoro-3-[4-(trifluoromethyl)anilino]-2,3-dihydro-1H-inden-5-yl]acrylamide] | 0.084
5 | C=CC(=O)Nc1ccc2c(c1)C(Nc1cc(F)cc(F)c1)CC2 (stereo not shown) [Example 53, N-(3-((3,5-difluorophenyl)amino)-2,3-dihydro-1H-inden-5-yl)acrylamide] | 0.057
6 | C=CC(=O)Nc1ccc2c(c1)C(O[C@H]1CC[C@H](C(F)(F)F)CC1)CC2 (relative stereo) [Example 36, N-(3-(((trans)-4-(trifluoromethyl)cyclohexyl)oxy)-2,3-dihydro-1H-inden-5-yl)acrylamide] | 0.099
7 | C=CC(=O)Nc1ccc2c(c1)C(Oc1ccc(C(F)(F)F)cc1)CC2 (stereo not shown) [Example 37, N-(3-(4-(trifluoromethyl)phenoxy)-2,3-dihydro-1H-inden-5-yl)acrylamide] | 0.024
8 | C=CC(=O)N(C)c1ccc2c(c1)CCC2Nc1ccc(C(F)(F)F)cc1 (stereo not shown) [Example 69, N-methyl-N-(1-((4-(trifluoromethyl)phenyl)amino)-2,3-dihydro-1H-inden-5-yl)acrylamide] | 0.349
9 | C=CC(=O)Nc1ccc2c(c1)C(Oc1cccc(Cl)c1)CC2 (stereo not shown) [Example 78, N-(3-(3-chlorophenoxy)-2,3-dihydro-1H-inden-5-yl)acrylamide] | 0.052
10 | C=CC(=O)Nc1ccc2c(c1)CCC2Nc1cc(C(F)(F)F)ccn1 (stereo not shown) [Example 59, N-(1-((4-(trifluoromethyl)pyridin-2-yl)amino)-2,3-dihydro-1H-inden-5-yl)acrylamide 2,2,2-trifluoroacetate] | 0.06
11 | C=CC(=O)Nc1ccc2c(c1)C(C)(C)CC2Nc1cccc(C(F)(F)F)c1 (stereo not shown) [Example 65, N-(3,3-dimethyl-1-((3-(trifluoromethyl)phenyl)amino)-2,3-dihydro-1H-inden-5-yl)acrylamide] | 1.85
12 | C=CC(=O)Nc1ccc2c(c1)CC[C@H]2Nc1ccc(C(F)(F)F)cc1 (single isomer, unassigned) [Example 55] | 0.038
13 | C=CC(=O)Nc1ccc2c(c1)CCC2N(C)c1ccc(C(F)(F)F)cc1 (stereo not shown) [Example 64, N-(1-(methyl(4-(trifluoromethyl)phenyl)amino)-2,3-dihydro-1H-inden-5-yl)acrylamide] | 0.806
14 | C=CC(=O)N(C)c1ccc2c(c1)CCC2Oc1cccc(C(F)(F)F)c1 (stereo not shown) [Example 89, N-methyl-N-(1-(3-(trifluoromethyl)phenoxy)-2,3-dihydro-1H-inden-5-yl)acrylamide] | 1.06
15 | C=CC(=O)Nc1ccc2c(c1)CCC2Nc1ccc(C(F)(F)F)cc1 (stereo not shown) [Example 10, N-(1-((4-(trifluoromethyl)phenyl)amino)-2,3-dihydro-1H-inden-5-yl)acrylamide] | 0.044
16 | C=CC(=O)Nc1ccc2c(c1)C(OC1CCC(C(F)(F)F)C1)CC2 (stereo not shown) [Example 71, N-(3-((3-(trifluoromethyl)cyclopentyl)oxy)-2,3-dihydro-1H-inden-5-yl)acrylamide] | 0.82
17 | C=CC(=O)Nc1ccc2c(c1)CCC2Nc1cccc(C(F)(F)F)n1 (stereo not shown) [Example 60, N-(1-((6-(trifluoromethyl)pyridin-2-yl)amino)-2,3-dihydro-1H-inden-5-yl)acrylamide] | 0.346
18 | C=CC(=O)Nc1ccc2c(c1)CCC2N(C)c1ccccc1 (stereo not shown) [Example 63, N-(1-(methyl(phenyl)amino)-2,3-dihydro-1H-inden-5-yl)acrylamide] | 0.144
19 | C=CC(=O)Nc1ccc2c(c1)CCC2Nc1cncc(C(F)(F)F)c1 (stereo not shown) [Example 61, N-(1-((5-(trifluoromethyl)pyridin-3-yl)amino)-2,3-dihydro-1H-inden-5-yl)acrylamide] | 0.178
20 | C=CC(=O)Nc1ccc2c(c1)CC(NCCCC(F)(F)F)C2 (stereo not shown) [Example 29, N-(2-((4,4,4-trifluorobutyl)amino)-2,3-dihydro-1H-inden-5-yl)acrylamide] | > 10
21 | C=CC(=O)Nc1ccc2c(c1)[C@H](Oc1ccc(C(F)(F)F)cc1)CC2 (single isomer, unassigned) [Example 87] | 0.028
22 | C=CC(=O)Nc1ccc2c(c1)C(OCCCC(F)(F)F)CC2 (stereo not shown) [Example 33, N-(3-(4,4,4-trifluorobutoxy)-2,3-dihydro-1H-inden-5-yl)acrylamide] | 0.17
23 | C=CC(=O)Nc1cc(F)c2c(c1)CCC2Nc1cccc(C(F)(F)F)c1 (stereo not shown) [Example 67, N-[7-fluoro-1-[3-(trifluoromethyl)anilino]-2,3-dihydro-1H-inden-5-yl]acrylamide] | 0.053

Row | Molecule | IC50 [µM]
24 | C=CC(=O)Nc1ccc2c(c1)C(Nc1cccc(C(F)(F)F)c1)C(F)C2 (stereo not shown) [Example 91, N-(2-fluoro-3-((3-(trifluoromethyl)phenyl)amino)-2,3-dihydro-1H-inden-5-yl)acrylamide] | 0.209
25 | C=CC(=O)Nc1ccc2c(c1)C(Oc1ccc(F)cc1F)CC2 (stereo not shown) [Example 44, N-(3-(2,4-difluorophenoxy)-2,3-dihydro-1H-inden-5-yl)acrylamide] | 0.038
26 | C=CC(=O)Nc1ccc2c(c1)CCC2Nc1ccc(F)nc1 (stereo not shown) [Example 19, N-(1-((6-fluoropyridin-3-yl)amino)-2,3-dihydro-1H-inden-5-yl)acrylamide] | 0.503
27 | C=CC(=O)Nc1ccc2c(c1)C(Oc1ccc(C(F)(F)F)cc1)C(F)C2 (stereo not shown) [Example 92, N-[2-fluoro-3-[4-(trifluoromethyl)phenoxy]-2,3-dihydro-1H-inden-5-yl]acrylamide] | 0.095
28 | C=CC(=O)Nc1ccc2c(c1)C(OCCCCF)CC2 (stereo not shown) [Example 34, N-(3-(4-fluorobutoxy)-2,3-dihydro-1H-inden-5-yl)acrylamide] | 2.53
29 | C=CC(=O)Nc1ccc2c(c1)[C@@H](OC)C[C@H]2Nc1cccc(C(F)(F)F)c1 (relative stereo) [Example 94, N-[(cis)-3-methoxy-1-[3-(trifluoromethyl)anilino]-2,3-dihydro-1H-inden-5-yl]acrylamide] | 0.395
30 | C=CC(=O)Nc1ccc2c(c1)CCC2Nc1cccc(C)c1 (stereo not shown) [Example 18, N-(1-(m-tolylamino)-2,3-dihydro-1H-inden-5-yl)acrylamide] | 0.213
31 | C=CC(=O)Nc1ccc2c(c1)C(Oc1cc(F)cc(F)c1)CC2 (stereo not shown) [Example 43, N-(3-(3,5-difluorophenoxy)-2,3-dihydro-1H-inden-5-yl)acrylamide] | 0.14
32 | C=CC(=O)Nc1ccc2c(c1)CCC2Oc1ccc(C(F)(F)F)cc1 (stereo not shown) [Example 82, N-(1-(4-(trifluoromethyl)phenoxy)-2,3-dihydro-1H-inden-5-yl)acrylamide] | 0.031
33 | C=CC(=O)N(C)c1ccc2c(c1)CCC2OC1CCC(C(F)(F)F)CC1 (stereo not shown) [Example 76, N-methyl-N-(1-((4-(trifluoromethyl)cyclohexyl)oxy)-2,3-dihydro-1H-inden-5-yl)acrylamide] | 0.777
34 | C=CC(=O)Nc1ccc2c(c1)C(NCc1ccccc1)CC2 (stereo not shown) [Example 23, N-(3-(benzylamino)-2,3-dihydro-1H-inden-5-yl)acrylamide] | 9.53
35 | C=CC(=O)Nc1ccc2c(c1)CC[C@H]2Oc1cccc(C(F)(F)F)c1 (single isomer, unassigned) [Example 85] | 0.042
36 | C=CC(=O)Nc1ccc2c(c1)CCC2Nc1ccc(F)cc1 (stereo not shown) [Example 5, N-(1-((4-fluorophenyl)amino)-2,3-dihydro-1H-inden-5-yl)acrylamide] | 0.029
37 | C=CC(=O)Nc1ccc2c(c1)C(Nc1cccc(C(F)(F)F)c1)CC2 (stereo not shown) [Example 11, N-(3-((3-(trifluoromethyl)phenyl)amino)-2,3-dihydro-1H-inden-5-yl)acrylamide] | 0.037
38 | C=CC(=O)Nc1ccc2c(c1F)CCC2Nc1ccc(C(F)(F)F)cc1 (stereo not shown) [Example 68, N-[4-fluoro-1-[4-(trifluoromethyl)anilino]-2,3-dihydro-1H-inden-5-yl]acrylamide] | 0.29
39 | C=CC(=O)Nc1ccc2c(c1)C[C@H](Nc1cccc(C(F)(F)F)c1)C2 (single isomer, unassigned) [Example 50] | 0.076
40 | C=CC(=O)Nc1ccc2c(c1)CC[C@@H]2Nc1cc(C(F)(F)F)ccn1 (single isomer, unassigned) [Example 57] | 0.134
41 | C=CC(=O)Nc1ccc2c(c1)CCC2Nc1ccc(F)cn1 (stereo not shown) [Example 21, N-(1-((5-fluoropyridin-2-yl)amino)-2,3-dihydro-1H-inden-5-yl)acrylamide] | 0.262
42 | C=CC(=O)Nc1ccc2c(c1)CCC2Nc1cccc(C(=O)OC)c1 (stereo not shown) [Example 22, methyl-3-((5-acrylamido-2,3-dihydro-1H-inden-1-yl)amino)benzoate] | > 10
43 | C=CC(=O)N(C)c1ccc2c(c1)CCC2Oc1ccc(C(F)(F)F)cc1 (stereo not shown) [Example 83, N-methyl-N-(1-(4-(trifluoromethyl)phenoxy)-2,3-dihydro-1H-inden-5-yl)acrylamide] | 0.109
